Experiments:
[1] = system: Male and female CD-1 mice; test: 14 Day Mouse Study (toxicology); type: in vivo
Method: A 14-Day Mouse Study is conducted to evaluate whether 1-(2,2-difluoro-2-deoxy-β-D-ribofuranosyl)-4-(2-propyl-1-oxopentyl)aminopyrimidin-2-one produces adverse effects in mice following 14 days of oral gavage dosing and to determine the plasma concentrations of 1-(2,2-difluoro-2-deoxy-β-D-ribofuranosyl)-4-(2-propyl-1-oxopentyl)aminopyrimidin-2-one and its metabolites gemcitabine HCl and deoxydifluorouridine after 1 or 14 doses.
Male and female CD-1 mice 9-12 weeks of age are dosed with 1-(2,2-difluoro-2-deoxy-β-D-ribofuranosyl)-4-(2-propyl-1-oxopentyl)aminopyrimidin-2-one drug by oral gavage. A range of doses is selected in an effort to determine a maximum tolerated dose and dose limiting toxicity. A dose volume of 10 mL/kg is used and doses are administered once daily.
Clinical signs, body weight, food consumption, hematology, clinical chemistry, plasma concentrations of 1-(2,2-difluoro-2-deoxy-β-D-ribofuranosyl)-4-(2-propyl-1-oxopentyl)aminopyrimidin-2-one and metabolites gemcitabine HCl and deoxydifluorouridine, and pathology (including gross pathology, organ weights, and histopathology) are evaluated.

[2] = Small Intestine Homogenate Assay (all species); type: in vitro ADME, CD-1 mice, beagle dogs, cynomolgus monkeys, and humans; settings: 100 uM, SIH 2.5-5 mg/mL protein, pH 7.5
Method: (§1) Small Intestine Homogenate Assay
(§2) To determine the stability of 1-(2,2-difluoro-2-deoxy-β-D-ribofuranosyl)-4-(2-propyl-1-oxopentyl)aminopyrimidin-2-one to enzymatic hydrolysis in the intestine, crude homogenates of small intestinal epithelial cells are prepared from sections of the upper small intestine from CD-1 mice, beagle dogs, cynomolgus monkeys, and humans. Mouse and dog homogenates are prepared from freshly collected tissue, while monkey and human homogenates are prepared from previously frozen tissues. Cells are gently scraped from intestinal segments, pooled, and homogenized in 50 mM acetate buffer using Polytron (PT-10-85). Protein concentrations are determined by standard spectrophotometric techniques. The prepared homogenates are store at −70° C. before using.
(§3) The hydrolytic rates of 1-(2,2-difluoro-2-deoxy-β-D-ribofuranosyl)-4-(2-propyl-1-oxopentyl)aminopyrimidin-2-one in small intestinal homogenates (SIH) is determined by incubating a compound of formula I (100 uM) with SIH (2.5-5 mg/mL of total protein) in acetate at pH 7.5 for up to 6 hours. Concentrations of gemcitabine released via hydrolysis is determined by LC/MS analysis after the reaction is quenched with acetonitrile. […]

[3] = Liver S9 Hydrolysis Assay (all species); type: in vitro ADME, CD-1 mouse, beagle dog, cynomolgus monkey, and human; settings: all species described; 10 uM, S9 2 mg/mL protein, pH 8.0
Method: (§4) Liver S9 Hydrolysis Assay
(§5) Hydrolysis of 1-(2,2-difluoro-2-deoxy-β-D-ribofuranosyl)-4-(2-propyl-1-oxopentyl)aminopyrimidin-2-one by liver enzymes is determined by liver hydrolysis assay. Liver homogenates are prepared from CD-1 mouse, beagle dog, cynomolgus monkey, and human livers. Liver tissues are cut into small pieces using scissors, then, homogenized in 50 mM acetate buffer using Polytron (PT-10-85) for 1 min. Post-mitochondrial (S9) fractions are prepared from each by ultracentrifugation at 9,000×g at 4° C. for 10 min. Mouse, dog and monkey liver S9 fractions are prepared from freshly collected tissues, while human liver S9 are prepared from previously frozen tissue. After centrifugation, the supernatant is collected and protein concentrations are determined by standard spectrophotometric techniques. The prepared S9 fractions are store at −70° C. before using.
(§6) The hydrolytic rates of 1-(2,2-difluoro-2-deoxy-β-D-ribofuranosyl)-4-(2-propyl-1-oxopentyl)aminopyrimidin-2-one in liver S9 is determined by incubating compound (10 uM) with S9 (2 mg/mL of total protein) in phosphate buffered saline at pH 8.0 for up to 6 hours. Concentrations of gemcitabine released via hydrolysis are determined by LC/MS analysis after the reaction is quenched with acetonitrile. […]

[4] = Liver S9 Hydrolysis Assay, monkey; type: in vitro ADME, cynomolgus monkey; settings: monkey liver S9, 6 hour incubation
Method: as §4, §5, §6

[5] = Monkey Pharmacokinetics Assay; type: in vivo; settings: administered intravenously to cynomolgus monkeys
Method: Monkey Pharmacokinetics Assay
The pharmacokinetic profiles of gemcitabine and a 1-(2,2-difluoro-2-deoxy-β-D-ribofuranosyl)-4-(2-propyl-1-oxopentyl)aminopyrimidin-2-one are assessed in cynomolgus monkeys following oral and intravenous administration in a crossover design. Compounds are administered at doses selected to contain approximately 10 mg/kg of gemcitabine. Blood samples are collected into EDTA-treated tubes containing tetrahydrouridine (0.5 mM final concentration in blood) at designated intervals for up to 48 hours. Animals are pretreated with ranitidine (intravenous, 5 mg/kg) in the oral dosing periods. Plasma is isolated by centrifugation and frozen prior to analysis. Plasma concentrations of gemcitabine and 1-(2,2-difluoro-2-deoxy-β-D-ribofuranosyl)-4-(2-propyl-1-oxopentyl)aminopyrimidin-2-one are determined by LC/MS/MS analysis. Pharmacokinetic parameters are determined using WinNonlin software (Pharsight Corp., Mountain View, Calif.).

[6] = Small Intestine Homogenate Assay, human; type: in vitro ADME, humans; settings: 6 hour incubation
Method: as §1, §2, §3

[7] = system: Male and female beagle dogs; test: 7-Day Dog Study (toxicology); type: in vivo; settings: oral via capsule once daily for 7 days
Method: To evaluate the toxicity profile of 1-(2,2-difluoro-2-deoxy-β-D-ribofuranosyl)-4-(2-propyl-1-oxopentyl)aminopyrimidin-2-one when administered to Beagle dogs for 7 days, and to determine the plasma concentrations of 1-(2,2-difluoro-2-deoxy-β-D-ribofuranosyl)-4-(2-propyl-1-oxopentyl)aminopyrimidin-2-one and metabolites gemcitabine HCl and deoxydifluorouridine after 1 or 7 doses, a 7-day dog study is conducted.
Male and female beagle dogs 6-48 months of age are dosed orally via capsule with 1-(2,2-difluoro-2-deoxy-β-D-ribofuranosyl)-4-(2-propyl-1-oxopentyl)aminopyrimidin-2-one. A range of doses is selected in an effort to determine a maximum tolerated dose and dose limiting toxicity. A dose volume of 1 mL/kg is used and doses are administered once daily.
Clinical signs, body weight, food consumption, body temperature, hematology (including coagulation), clinical chemistry, urinalysis, plasma concentrations of 1-(2,2-difluoro-2-deoxy-β-D-ribofuranosyl)-4-(2-propyl-1-oxopentyl)aminopyrimidin-2-one and its metabolites gemcitabine HCl and deoxydifluorouridine, and pathology (including gross pathology, organ weights, and histopathology) were evaluated.

[8] = Small Intestine Homogenate Assay, monkey; type: in vitro ADME, cynomolgus monkeys; settings: 6 hour incubation
Method: as §1, §2, §3

[9] = system: HCT-116 colon tumor cells; test: In Vivo Assay, HCT-116 colon tumor xenograft; settings: oral gavage
Method: HCT-116 colon tumor cells are grown in vitro under standard tissue culture conditions, harvested, washed, and 5×10^6 cells (1:1 suspension in Matrigel, Collaborative Biomedical Products, Inc) are injected subcutaneously in the rear flank of female nude mice (Charles River, CD1 nu/nu, 24-27 g, irradiated with 450 Rads within 24 h of implantation). Tumors are allowed to grow to ˜100 mm^3 before initiation of therapy. Vehicle control, 1-(2,2-difluoro-2-deoxy-β-D-ribofuranosyl)-4-(2-propyl-1-oxopentyl)aminopyrimidin-2-one or gemcitabine-HCl at various dose levels are administered to the mice by oral gavage (10 ml/kg volume) at the times indicated in the individual experiments. Compounds are administered either daily for fourteen days, every other day for a total of seven doses, or every third day for a total of four doses. […] Tumor size is determined by caliper measurements and tumor volume (mm^3) is estimated from the formula l×w^2×0.536, where l is the larger and w is the smaller of perpendicular diameters. All data (tumor measurements and animal weights) are captured twice-weekly beginning with the start of therapy and analyzed using a computer based tumor measurement system.

[10] = system: Female CD-1 mice; test: 4-Day Mouse Screen (toxicology); type: in vivo; settings: oral gavage once daily for 4 days, molar equivalent of 8-mg/kg gemcitabine
Method: To evaluate the toxicity produced by orally administered 1-(2,2-difluoro-2-deoxy-β-D-ribofuranosyl)-4-(2-propyl-1-oxopentyl)aminopyrimidin-2-one when administered daily to female […] mice for 4 days, the gastrointestinal toxicity profiles of 1-(2,2-difluoro-2-deoxy-β-D-ribofuranosyl)-4-(2-propyl-1-oxopentyl)aminopyrimidin-2-one is compared with the historical results for gastrointestinal toxicity when gemcitabine is administered orally at 8 mg/kg in a 4-day mouse study.
Female CD-1 mice 5-8 weeks of age are dosed with 1-(2,2-difluoro-2-deoxy-β-D-ribofuranosyl)-4-(2-propyl-1-oxopentyl)aminopyrimidin-2-one by oral gavage. A dose level is chosen to approximate a molar equivalent of 8-mg/kg gemcitabine. A dose volume of 10 mL/kg is used and doses are administered once daily on 4 consecutive days. Necropsy is performed approximately 5-8 hours following the 4th dose.
Clinical signs, clinical chemistry, gross pathology, and limited histopathology (ileum, jejunum, and liver) are evaluated.

[11] = Liver S9 Hydrolysis Assay, human; type: in vitro ADME; settings: human liver S9, 6 hour incubation
Method: as §4, §5, §6

[12] = pH Chemical Stability Assay; type: physicochemical; settings: pH range 1 to 8, after four hours, 40° C., 100 mcg/mL in buffers
Method: pH Chemical Stability Assay
The pH chemical stability is assessed using a semi-automated HPLC technique. Samples of 1-(2,2-difluoro-2-deoxy-β-D-ribofuranosyl)-4-(2-propyl-1-oxopentyl)aminopyrimidin-2-one are prepared at 100 mcg/mL in five buffers representing the pH range throughout the gastrointestinal tract (pH1-pH8). Samples are loaded onto an HPLC autosampler incubated at 40° C. Samples are repeatedly injected on the HPLC at hourly intervals for up to 24 hours with an HPLC column that separates a compound of formula I from gemcitabine. The peak area of 1-(2,2-difluoro-2-deoxy-β-D-ribofuranosyl)-4-(2-propyl-1-oxopentyl)aminopyrimidin-2-one is monitored by UV detection over time and are compared to initial peak areas to determine stability.

[13] = Mouse Pharmacokinetics; type: in vivo, male CD-1 mice
Method: The pharmacokinetic profiles of gemcitabine and 1-(2,2-difluoro-2-deoxy-β-D-ribofuranosyl)-4-(2-propyl-1-oxopentyl)aminopyrimidin-2-one are assessed in male CD-1 mice following oral administration at doses selected to contain approximately 10 mg/kg of gemcitabine. Designated animals (n=3/time point/compound) are sacrificed at 0.08, 0.25, 0.5, 1, 2, and 6 hours after dosing, and systemic blood samples are collected into EDTA-treated tubes containing tetrahydrouridine (0.5 mM final concentration in blood) to inhibit further metabolism of gemcitabine. An additional 3 animals are sacrificed at 0.08 hours for collection of hepatic portal blood. Plasma is isolated by centrifugation and frozen prior to analysis. Plasma concentrations of gemcitabine and prodrugs are determined by LC/MS/MS analysis. Pharmacokinetic parameters are calculated using WinNonlin software (Pharsight Corp., Mountain View, Calif.). Pharmacokinetic parameters of each prodrug are compared to those determined from administration of oral gemcitabine hydrochloride in a similar study design.

[14] = system: mice; settings: comparable exposures via intravenous dosing; cited from earlier work
[15] = result of first pass metabolism; cited from earlier work
[16] = system: mice; settings: single oral (gavage) dose of 167, 333, or 500 mg/kg; cited from earlier work

SMILES	systemic gemcitabine exposure from the prodrug versus gemcitabine HCl on a molar equivalent basis ([1]; 14-day oral gavage study)	enteropathy versus gemcitabine HCl on a molar equivalent basis ([1]; 14 days of oral gavage dosing)	rate of hydrolysis in small intestine homogenate [2]	hydrolysis in liver S9 [3]	total compound converted to gemcitabine [4]	hydrolysis in vivo to release gemcitabine [5]	total compound converted to gemcitabine [6]	hematotoxicity and other toxicities, including GI toxicity [7]	total compound converted to gemcitabine [8]	overall toxicity versus equivalent amount of gemcitabine-HCl ([9]; HCT-116 tumor-bearing nude mice)	antitumor efficacy versus equivalent dose of gemcitabine-HCl ([9]; HCT-116 tumors in nude mice)	severity of atrophic intestinal changes or enteropathy versus gemcitabine HCl [10]	total compound converted to gemcitabine [11]	degraded to gemcitabine [12]	concentrations of intact prodrug in hepatic portal plasma ([13]; 0.08 hours after oral dosing, CD-1 mice)	hydrolysis in vivo to release gemcitabine ([13]; administered orally to CD-1 mice, dose containing approximately 10 mg/kg of gemcitabine)	plasma exposure to gemcitabine compared to direct oral administration of gemcitabine hydrochloride ([13]; oral, CD-1 mice)	death or gastrointestinal toxicity [14]	oral bioavailability [15]	adverse dose-limiting intestinal lesions [16]
CCCC(CCC)C(=O)Nc1ccn([C@@H]2O[C@H](CO)[C@@H](O)C2(F)F)c(=O)n1 [1-(2,2-difluoro-2-deoxy-β-D-ribofuranosyl)-4-(2-propyl-1-oxopentyl)aminopyrimidin-2-one]	approximately twice	less enteropathy	slow rate of hydrolysis	hydrolyzed	approximately 35%	extensively hydrolyzed	less than 3%	consistent with what has been previously described for parenteral gemcitabine	less than 3%	less overall toxicity	comparable	significant reduction	approximately 35%	Less than 25%	relatively high concentrations	extensively hydrolyzed	increased			
Nc1ccn([C@@H]2O[C@H](CO)[C@@H](O)C2(F)F)c(=O)n1 [gemcitabine, 2′,2′-difluoro-2′-deoxycytidine]																		did not result in death or gastrointestinal toxicity	poor oral bioavailability	moderate-to-marked loss of mucosal epithelium (atrophic enteropathy)

Source: patent US8114854B2, “Crystalline forms of gemcitabine amide prodrug, compositions and use thereof” (Eli Lilly and Company, priority 2006, dated 2012)
